This is an account of results in the supplement of paper PMC5579334.

Experiment [1] concerns HS-PSS. In words: relative IC50 (inflection point of fitted dose-response curve, CellTox-Green cytotoxicity, 72 h; top asymptote may be below 50%); higher = less potent. The essentials:
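MPNST cell lines and primary human Schwann cells were incubated 72 h at 37 °C in 384-well plates holding five 10-fold compound dilutions. CellTox-Green was added before seeding at a final 1:1000 dilution and reported fluorescence from DNA released by disrupted cells. Signals were scaled to vehicle and positive-control wells, and cultures failing plate quality control were dropped. Drug sensitivity score and relative IC50 come from four-parameter logistic fits, with IC50 censored at the top concentration.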

The subject of experiment [2] is HS-PSS. Briefly: relative IC50 (inflection point of fitted dose-response curve, CellTiter-Glo viability, 72 h; top asymptote may be below 50% inhibition); higher = less potent. The essentials:
(§1)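 Viability was scored by CellTiter-Glo ATP luminescence, scaled from vehicle to positive-control wells, with duplicates averaged where present. The cells, MPNST lines and primary human Schwann cells at 750–1000 per well, sat 72 h at 37 °C, 5% CO2, in 384-well plates preprinted with each compound at five concentrations in 10-fold steps. Four-parameter logistic fits were run on the data. These fits give drug sensitivity score and relative IC50 censored at the top concentration, and percent inhibition is reported at the top concentration.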
For orientation: In ATP-based viability assays light output follows the ATP content of the culture.

The subject of experiment [3] is HS-Sch-2. The description is as above. The essentials:
as §1

Experiment [4] concerns YST-1. The experiment is described as above. Summed up:
as §1

The structures appear in SMILES notation. A value given as a limit tells only on which side of the number the result lay.

As for `CN(C[C@@H]1COCCO1)S(=O)(=O)Nc1ccc2ccc3ncc(-c4cnn(C)c4)cc3c(=O)c2c1` [MK-2461], the “relative IC50” value in experiment [1] was more than 10 µM; in experiment [2], 4.1 µM; in experiment [3], 3.48 µM; in experiment [4], 1.68 µM.
On to `Cn1cc(-c2cnn3c(N)c(Br)c([C@@H]4CCCNC4)nc23)cn1` [MK-8776], for which the “relative IC50” value was more than 2.5 µM in experiment [1], more than 2.5 µM in experiment [2], 0.36 µM in experiment [3] and 0.362 µM in experiment [4].
`CC(=O)O[C@]1(C(C)=O)CC[C@H]2[C@@H]3C=C(C)C4=CC(=O)CC[C@]4(C)[C@H]3CC[C@@]21C` [Megestrol acetate]: the “relative IC50” value in experiment [1], in experiment [2], in experiment [3] and in experiment [4] was more than 10 µM throughout.
`N[C@@H](Cc1ccc(N(CCCl)CCCl)cc1)C(=O)O` [Melphalan]: the “relative IC50” value in experiment [1], in experiment [2], in experiment [3] and in experiment [4] was more than 12.5 µM in each case.
In the case of `CCN(CC)CCCC(C)Nc1c2ccc(Cl)cc2nc2ccc(OC)cc12` (stereo not given) [Mepacrine], the “relative IC50” value in experiment [1] is 1.58 µM; in experiment [2], 1.44 µM; in experiment [3], 1.44 µM; in experiment [4], 1.79 µM.
With `Cc1ccc(C(=O)Nc2ccc(Oc3cc4cnn(C)c4cc3-c3cn[nH]c3)c(F)c2)c(=O)n1-c1ccc(F)cc1` [Merestinib], the “relative IC50” value is more than 1 µM in experiment [1], 0.245 µM in experiment [2], 0.371 µM in experiment [3] and 0.15 µM in experiment [4].
Regarding `FC(F)(F)c1ccc(/C=C/c2nc(COc3ccc(CCCCn4ccnn4)cc3)co2)cc1` [Mubritinib], the “relative IC50” value in experiment [1] is more than 1 µM; in experiment [2], 0.0109 µM; in experiment [3], 0.0197 µM; in experiment [4], 0.00605 µM.
In the case of `Cc1cc(OCc2nnc(SC3CCCC3)n2-c2cccnc2)ccc1-c1ccc(S(C)(=O)=O)cc1` [NMS-873], the “relative IC50” value in experiment [1] is 2.95 µM; in experiment [2] it was 0.101 µM; in experiment [3] it was 0.193 µM; in experiment [4], 1.49 µM.
In the same order, the values of `Nc1ncnc2c1c(-c1cccc(OCc3ccccc3)c1)cn2[C@H]1C[C@@H](CN2CCC2)C1` [NVP-AEW541] are 2.38 µM, 3.02 µM, 1.96 µM and 0.654 µM.
In the same order, the values of `COc1ccc(-c2ccc3ncc4c(c3c2)n(-c2ccc(N3CCNCC3)c(C(F)(F)F)c2)c(=O)n4C)cn1` [NVP-BGT226] are 0.335 µM, 0.0404 µM, 0.0125 µM and 0.0179 µM.
With `Cc1cc(-c2ncc(CC(=O)Nc3ccc(-c4cnccn4)cn3)cc2C)ccn1` [NVP-LGK974], the “relative IC50” value in experiment [1] was more than 10 µM; in experiment [2], 1.97 µM; in experiment [3], 2.92 µM; in experiment [4], more than 10 µM.
Turning to `COc1ccc(C[C@H](NC(=O)[C@H](C)NC(=O)CN2CCOCC2)C(=O)N[C@@H](Cc2ccccc2)C(=O)[C@@]2(C)CO2)cc1` [ONX-0914], the “relative IC50” value in experiment [1] was found to be 0.307 µM; in experiment [2], 0.335 µM; in experiment [3] it was 0.158 µM; in experiment [4] it was 0.309 µM.
In the same order, the values of `Cc1sc2c(c1C)C(c1ccc(Cl)cc1)=N[C@@H](CC(=O)Nc1ccc(O)cc1)c1nnc(C)n1-2` [OTX015] are more than 10 µM, 0.321 µM, 0.223 µM and 0.162 µM.
Turning to `COc1ncc(-c2ccc3nccc(-c4ccnnc4)c3c2)cc1NS(=O)(=O)c1ccc(F)cc1F` [Omipalisib], the “relative IC50” value in experiment [1] was more than 1 µM; in experiment [2], 0.0352 µM; in experiment [3], 0.0984 µM; in experiment [4] it was 0.00688 µM.
As for `CC(C)c1cc(C(=O)N2Cc3ccc(CN4CCN(C)CC4)cc3C2)c(O)cc1O` [Onalespib], the “relative IC50” value is 0.0627 µM in experiment [1], 0.114 µM in experiment [2], 0.037 µM in experiment [3] and 0.105 µM in experiment [4].
In the same order, the values of `COC[C@H](NC(=O)c1cnc(C)s1)C(=O)N[C@@H](COC)C(=O)N[C@@H](Cc1ccccc1)C(=O)[C@@]1(C)CO1` [Oprozomib] are 0.486 µM, 0.148 µM, 0.0167 µM and 0.0721 µM.
For `CNC(=O)c1ccc2cc([C@@]3(O)CCn4cncc43)ccc2c1` [Orteronel] the same measures were more than 10 µM, more than 10 µM, more than 10 µM and more than 10 µM.
`O=C(O)C(=O)O.[NH-][C@@H]1CCCC[C@H]1[NH-].[Pt+2]` [Oxaliplatin]: the “relative IC50” value in experiment [1] stood at 23.2 µM; in experiment [2], 7.51 µM; in experiment [3], 9.67 µM; in experiment [4] it was 1.97 µM.
In the same order, the values of `CN1CCN(c2cc(C(=O)Nc3ccc4c(c3)-c3c(c(C(N)=O)nn3-c3ccc(F)cc3)CC4)c(Cl)cn2)CC1` [PHA 408] are 3.27 µM, 2.4 µM, 3.28 µM and 3.08 µM.
As for `COc1cc(Br)c(Nc2nc(-c3c(C)nc4ncccn34)cs2)c(Br)c1` [PTC-209], the “relative IC50” value was more than 10 µM in experiment [1], 1.67 µM in experiment [2], 1.41 µM in experiment [3] and 2.58 µM in experiment [4].
Take `C1=N/C2=N/c3ccc(OCCN4CCCC4)c(c3)COC/C=C/COCc3cccc(c3)C(=C1)N2` [Pacritinib]: the “relative IC50” value in experiment [1] was determined as 2.78 µM; in experiment [2], 1.18 µM; in experiment [3], 1.76 µM; in experiment [4], 1.94 µM.
For `CCCCCCCCCCCCCCCCCCOP(=O)([O-])OC1CC[N+](C)(C)CC1` [Perifosine] the same measures were more than 2.5 µM, more than 2.5 µM, more than 2.5 µM and more than 2.5 µM.
In the same order, the values of `CC(C)N(C[C@H]1O[C@@H](n2cnc3c(N)ncnc32)[C@H](O)[C@@H]1O)[C@H]1C[C@@H](CCc2nc3cc(C(C)(C)C)ccc3[nH]2)C1` [Pinometostat] are more than 1 µM, more than 1 µM, more than 1 µM and more than 1 µM.
For the compound `NCCNc1ccc(NCCN)c2c1C(=O)c1ccncc1C2=O` [Pixantrone], the “relative IC50” value was more than 10 µM in experiment [1], 3 µM in experiment [2], 3.48 µM in experiment [3] and 3.3 µM in experiment [4].
For `CCCCc1nc2cc(/C=C/C(=O)NO)ccc2n1CCN(CC)CC` [Pracinostat], the “relative IC50” value in experiment [1] turned out to be 1.63 µM; in experiment [2], 0.728 µM; in experiment [3], 0.429 µM; in experiment [4] it was 0.121 µM.

What is called relative IC50 is the concentration at the midpoint between the plateaus of the fitted inhibition curve.
